The test system of data set [1] is TK6/SULT2A1 cells. As to the kind of experiment: MTT assay of cell growth in TK6/SULT2A1 cells. Particulars: for IC50: read-out: IC50 on cell growth. (Formazan colour is commonly taken as a measure of viable cells.)
The target of data set [2] is T1, SULT1A1 (Homo sapiens, UniProt P50225).
For data set [3], the system named is TK6/SULT vector cells. As to the kind of experiment: MTT assay of cell growth in TK6/SULT vector cells. Particulars: for IC50: read-out: IC50 on cell growth.
Data set [4] deals with TK6/SULT2A1 cells. As to conditions: 90 µM.
Data set [5] relates to TK6/SULT vector cells. As to conditions: 45 µM.
Data set [6] is described as follows: Sulfonation activity of pooled human liver cytosols. As to conditions: Human liver cytosol; 1 h at 37 °C; mean ± s.d., three experiments.
Data set [7] deals with T2, SULT1C4 (Homo sapiens, UniProt O75897).
T2 sequence (O75897 whole entry): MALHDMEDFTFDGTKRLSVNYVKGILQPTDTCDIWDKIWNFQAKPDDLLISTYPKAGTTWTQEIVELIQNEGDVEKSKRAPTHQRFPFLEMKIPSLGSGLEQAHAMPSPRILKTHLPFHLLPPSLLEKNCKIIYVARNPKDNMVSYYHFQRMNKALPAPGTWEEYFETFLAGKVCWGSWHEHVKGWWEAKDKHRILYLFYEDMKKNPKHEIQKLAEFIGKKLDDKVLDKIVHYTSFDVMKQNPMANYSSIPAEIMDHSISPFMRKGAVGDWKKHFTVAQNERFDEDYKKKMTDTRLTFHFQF
The subject of data set [8] is TK6/SULT vector cells. The format is cell-based, human.
Data set [9] deals with T3, SULT2A1 (Homo sapiens, UniProt Q06520).
T3 sequence (Q06520 1-285): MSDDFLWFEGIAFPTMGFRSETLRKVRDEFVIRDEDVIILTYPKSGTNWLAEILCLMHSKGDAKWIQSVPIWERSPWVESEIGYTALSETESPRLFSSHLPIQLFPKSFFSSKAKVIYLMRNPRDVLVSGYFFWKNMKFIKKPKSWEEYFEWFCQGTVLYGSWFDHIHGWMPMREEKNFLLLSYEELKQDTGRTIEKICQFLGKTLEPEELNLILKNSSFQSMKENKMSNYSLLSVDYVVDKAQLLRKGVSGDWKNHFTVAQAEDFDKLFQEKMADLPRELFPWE

Data set [10] has as its target T1, SULT1A1. Briefly: Sulfonation by cytosol of HEK293/SULT1A1-overexpressing cells. As to conditions: SULT1A1 cytosol; 1 h at 37 °C; mean ± s.d., three experiments.
For data set [11], the target named is T4, SULT1E1 (Homo sapiens, UniProt P49888).
T4 sequence (P49888 1-294): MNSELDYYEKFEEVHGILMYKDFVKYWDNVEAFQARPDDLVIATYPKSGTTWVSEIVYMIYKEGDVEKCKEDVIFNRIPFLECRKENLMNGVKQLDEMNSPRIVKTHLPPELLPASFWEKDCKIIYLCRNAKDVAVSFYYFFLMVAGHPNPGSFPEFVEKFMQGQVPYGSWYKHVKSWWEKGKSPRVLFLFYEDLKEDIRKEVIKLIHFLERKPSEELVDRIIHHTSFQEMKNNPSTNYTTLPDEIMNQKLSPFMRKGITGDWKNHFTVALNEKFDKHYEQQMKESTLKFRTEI

Data set [12] has as its system TK6 cells. Briefly: MTT assay of cell growth in TK6 cells. The format is cell-based, human. As to conditions: read-out: IC50 on cell growth.
For data set [13], the target named is T4, SULT1E1. As to the kind of experiment: Sulfonation by cytosol of HEK293/SULT1E1-overexpressing cells. As to conditions: SULT1E1 cytosol; 1 h at 37 °C; mean ± s.d., three experiments.
Data set [14] has as its target T2, SULT1C4. As to the kind of experiment: Sulfonation by cytosol of HEK293/SULT1C4-overexpressing cells. Particulars: SULT1C4 cytosol; 1 h at 37 °C; mean ± s.d., three experiments.
Data set [15] deals with T5, SULT4A1 (Homo sapiens, UniProt Q9BR01).
T5 sequence (Q9BR01 1-284): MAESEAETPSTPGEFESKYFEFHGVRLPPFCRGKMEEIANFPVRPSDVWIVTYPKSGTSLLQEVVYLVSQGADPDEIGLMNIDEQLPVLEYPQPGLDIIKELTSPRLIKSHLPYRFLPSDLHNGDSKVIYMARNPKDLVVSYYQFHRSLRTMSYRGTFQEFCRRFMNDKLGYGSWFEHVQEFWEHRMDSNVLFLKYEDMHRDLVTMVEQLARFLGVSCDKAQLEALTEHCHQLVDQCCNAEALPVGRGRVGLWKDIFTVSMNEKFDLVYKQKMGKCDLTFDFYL
As to the kind of experiment: Sulfonation by cytosol of HEK293/SULT4A1-overexpressing cells. The class given is in vitro ADME. As to conditions: 250 μM [14C]triclosan, 0.5 mg cytosolic protein, 500 μM PAPS, pH 7.2, 37 °C, 2 h.

Data set [16] addresses T6, SULT6B1 (Homo sapiens, UniProt Q6IMI4).
T6 sequence (Q6IMI4 1-303): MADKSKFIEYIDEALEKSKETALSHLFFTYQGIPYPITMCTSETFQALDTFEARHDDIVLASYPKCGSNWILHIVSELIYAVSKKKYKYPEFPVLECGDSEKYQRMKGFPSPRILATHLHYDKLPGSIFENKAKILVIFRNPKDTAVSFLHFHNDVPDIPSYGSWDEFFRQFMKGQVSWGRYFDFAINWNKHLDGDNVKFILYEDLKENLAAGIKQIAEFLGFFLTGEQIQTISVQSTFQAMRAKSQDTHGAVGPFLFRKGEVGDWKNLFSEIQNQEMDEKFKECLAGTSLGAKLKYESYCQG
As to the kind of experiment: Sulfonation by cytosol of HEK293/SULT6B1-overexpressing cells. The class given is in vitro ADME. Particulars: 250 μM [14C]triclosan, 0.5 mg cytosolic protein, 500 μM PAPS, pH 7.2, 37 °C, 2 h.

Data set [17] concerns the target T7, cytosols from TK6/SULT2A1 cells (Homo sapiens, UniProt Q06520).
T7 sequence (Q06520 1-285): T3 sequence (Q06520 1-285)
As to the kind of experiment: Sulfonation of triclosan by cytosols from TK6/SULT2A1 cells. The format is in vitro ADME. As to conditions: not in TK6 and TK6/SULT vector cytosols.

For data set [18], the target named is T8, SULT2B1 (Homo sapiens, UniProt O00204).
T8 sequence (O00204 1-365): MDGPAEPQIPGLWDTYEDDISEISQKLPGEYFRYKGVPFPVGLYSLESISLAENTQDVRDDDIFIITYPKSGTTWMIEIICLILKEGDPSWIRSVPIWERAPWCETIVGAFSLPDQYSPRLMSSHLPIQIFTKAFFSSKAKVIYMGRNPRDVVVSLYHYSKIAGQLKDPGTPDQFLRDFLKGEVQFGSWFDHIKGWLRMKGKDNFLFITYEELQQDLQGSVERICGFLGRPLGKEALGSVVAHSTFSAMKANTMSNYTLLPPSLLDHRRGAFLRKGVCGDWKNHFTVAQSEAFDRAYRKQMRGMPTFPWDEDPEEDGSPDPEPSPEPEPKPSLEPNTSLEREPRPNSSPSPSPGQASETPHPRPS
As to the kind of experiment: Sulfonation by cytosol of HEK293/SULT2B1-overexpressing cells. The format is in vitro ADME. Particulars: 250 μM [14C]triclosan, 0.5 mg cytosolic protein, 500 μM PAPS, pH 7.2, 37 °C, 2 h.

Data set [19] addresses SULT1C2 (Homo sapiens, UniProt O00338). As to the kind of experiment: Sulfonation by cytosol of HEK293/SULT1C2-overexpressing cells. As to conditions: 250 μM [14C]triclosan, 0.5 mg cytosolic protein, 500 μM PAPS, pH 7.2, 37 °C, 2 h. The format is in vitro ADME.
Data set [20] concerns human hepatoma HepG2 cells. Particulars: 48 h exposure, ref [30]; cited from earlier work.
Data set [21] concerns immortalized normal liver THLE2 cells. Particulars: 48 h exposure, ref [30]; cited from earlier work.
Data set [22] is described as follows: Stability of 12-sulfoxynevirapine in buffer by reversed-phase HPLC. The format is physicochemical. As to conditions: up to 2 months.
For data set [23], the target named is T3, SULT2A1. Briefly: Inhibition of SULT2A1-catalyzed sulfonation of triclosan. The class given is biochemical. As to conditions: 10 μM pentachlorophenol, preliminary experiments.
Data set [24] has as its target T4, SULT1E1. Briefly: Inhibition of SULT1E1-catalyzed sulfonation of triclosan. The class given is biochemical. Particulars: 10 μM pentachlorophenol, preliminary experiments.

These results are taken from paper PMC12434715 (Biochemical pharmacology, 2018).

Like-named read-outs stand apart in the source and are kept apart here.

T1 sequence (P50225 whole entry): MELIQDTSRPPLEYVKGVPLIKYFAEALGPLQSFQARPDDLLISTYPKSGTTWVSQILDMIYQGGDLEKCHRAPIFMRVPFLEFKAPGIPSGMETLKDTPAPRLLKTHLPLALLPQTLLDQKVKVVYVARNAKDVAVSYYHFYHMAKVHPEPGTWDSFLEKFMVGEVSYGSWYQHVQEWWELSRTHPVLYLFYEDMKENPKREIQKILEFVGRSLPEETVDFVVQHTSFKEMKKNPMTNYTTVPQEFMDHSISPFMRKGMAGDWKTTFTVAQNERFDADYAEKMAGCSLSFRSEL
SULT1C2, sequence (O00338 whole entry): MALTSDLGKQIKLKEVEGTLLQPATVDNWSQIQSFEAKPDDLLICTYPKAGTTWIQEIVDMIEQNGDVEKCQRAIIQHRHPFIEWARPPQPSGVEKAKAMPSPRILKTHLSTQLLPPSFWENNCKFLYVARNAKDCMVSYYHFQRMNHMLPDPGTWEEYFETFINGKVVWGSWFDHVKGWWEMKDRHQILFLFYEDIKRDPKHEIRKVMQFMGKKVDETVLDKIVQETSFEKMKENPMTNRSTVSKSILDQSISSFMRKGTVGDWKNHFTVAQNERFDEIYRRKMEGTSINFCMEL

As a reminder, the IC50 is the midpoint of a concentration-inhibition curve. The term Km denotes the substrate concentration at which the rate is half of its maximum. As to `O=C1Nc2c(CO)ccnc2N(C2CC2)c2ncccc21` [12-Hydroxynevirapine], the IC50 in [1] (TK6/SULT2A1 cells, 48 h exposure, MTT assay) was determined as 89.9 µM; in data set [3] (TK6/SULT vector cells, 48 h exposure, MTT assay), 45.1 µM; in data set [12] (TK6 cells, 48 h exposure, MTT assay) it was 42.6 µM. Further, the Km in [2] was determined as 787 ± 62.2 µM; in data set [7] it was 260 ± 38.9 µM; in [9], 545 ± 68.5 µM; in [11], 216 ± 34 µM. Besides, the Cell viability result in data set [4] and in data set [5] was “approximately 50%” throughout. The Vmax in data set [6] is given as 71.0 ± 4.5 pmol min^−1 cytosolic protein mg^−1; in data set [10], 71.2 ± 2.0 pmol min^−1 cytosolic protein mg^−1; in data set [13], 71.0 ± 2.8 pmol min^−1 cytosolic protein mg^−1; in data set [14] it was 56.0 ± 2.2 pmol min^−1 cytosolic protein mg^−1. Also, the “Formation of 12-sulfoxynevirapine in treated cells” value in data set [8] is “not detected”.

With `Oc1cc(Cl)ccc1Oc1ccc(Cl)cc1Cl` [Triclosan, triclosan], the Sulfonation of triclosan was 50.4 ± 0.6 pmol min^−1 mg cytosolic protein^−1 in data set [15], 33.8 ± 1.0 pmol min^−1 mg cytosolic protein^−1 in data set [16], 46.6 ± 1.9 pmol min^−1 mg cytosolic protein^−1 in data set [18] and 28.5 ± 0.2 pmol min^−1 mg cytosolic protein^−1 in data set [19]. In data set [17], the “Sulfonation activity towards triclosan” value was “showed sulfonation activity”.

`Cc1ccnc2c1NC(=O)c1cccnc1N2C1CC1` [Nevirapine, 11-cyclopropyl-5,11-dihydro-4-methyl-6H-dipyrido [3,2-b:2′,3′-e][1, 4]diazepin-6-one]: the “Concentration that inhibited cell growth” value in data set [20] and in data set [21] was “approximately 1.0 mM” in each case. The IC50 is about 130 µM in [1] (Homo sapiens, 48 h); about 130 µM in data set [3] (Homo sapiens, 48 h); about 130 µM in data set [12] (Homo sapiens, TK6, 48 h).

Turning to `O=C1Nc2c(COS(=O)(=O)O)ccnc2N(C2CC2)c2ncccc21` [12-Sulfoxynevirapine], the Stability in buffer entry in data set [22] (50 mM Bis-Tris, pH 7.1, room temperature) is on record as “stable”; in data set [22] (100 mM sodium phosphate, pH 7.2, room temperature) it was “stable”.

For `Oc1c(Cl)c(Cl)c(Cl)c(Cl)c1Cl` [Pentachlorophenol, pentachlorophenol], the “Cytotoxicity of the SULT substrate alone” value in data set [1] (TK6/SULT2A1 cells, tested concentration (DHEA 5 μM, pentachlorophenol 10 μM), 48 h, MTT) is “not cytotoxic”; in data set [3] (TK6/SULT vector cells, tested concentration (DHEA 5 μM, pentachlorophenol 10 μM), 48 h, MTT), “not cytotoxic”. Moreover, the “Triclosan being sulfated in the presence of inhibitor” value in data set [23] was found to be 12%; in [24] it was 44%.
